How the values were obtained:
[1] = biological target: Syk (Homo sapiens (Human), UniProt P43405); experiment: Syk enzyme inhibition (FRET, Z-LYTE); format: biochemical
Outline: (§1)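 Each kinase is exposed to test compound for 2 hr at RT before substrate and ATP (pre-mix levels: c-Src 800 μM, Syk 60 μM) start a 1 hr reaction. A 1 hr protease step removes signal from non-phosphorylated peptide; inhibition against uninhibited control yields IC50.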

[2] = biological target: c-Src (Homo sapiens (Human), UniProt P12931); experiment: c-Src enzyme inhibition (FRET, Z-LYTE); format: biochemical
Sequence of c-Src (P12931 whole entry, looked up): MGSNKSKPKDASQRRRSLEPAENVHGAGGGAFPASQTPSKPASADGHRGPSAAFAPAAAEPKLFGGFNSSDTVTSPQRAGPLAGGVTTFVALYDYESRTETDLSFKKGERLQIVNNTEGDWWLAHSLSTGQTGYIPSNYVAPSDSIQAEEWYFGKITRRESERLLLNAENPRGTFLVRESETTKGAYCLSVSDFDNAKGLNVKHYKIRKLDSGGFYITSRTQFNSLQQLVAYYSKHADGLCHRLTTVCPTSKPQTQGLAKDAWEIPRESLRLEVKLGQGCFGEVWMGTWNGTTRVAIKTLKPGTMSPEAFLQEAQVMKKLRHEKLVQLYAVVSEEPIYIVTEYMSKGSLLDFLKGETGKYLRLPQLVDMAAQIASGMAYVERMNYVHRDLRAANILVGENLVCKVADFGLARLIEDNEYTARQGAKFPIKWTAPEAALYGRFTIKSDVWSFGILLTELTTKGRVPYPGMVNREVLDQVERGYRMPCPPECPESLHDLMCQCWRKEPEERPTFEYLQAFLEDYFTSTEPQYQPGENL
Outline: as §1

[3] = test system: PBMCs; experiment: IL-2 release in CD3/CD28 stimulated PBMC cells (assay c); format: cell-based; conditions: Homo sapiens, read-out: IC50 Values for Inhibition of Cytokine Release, PBMCs IL-2
Outline: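 Sandwich ELISA of supernatant IL-2 and IFN gamma; IC50 from dose-response curve. Cells: density-gradient PBMCs from healthy subjects on plate-bound anti-CD3 0.3 μg/mL + anti-CD28 3 μg/mL, compound added, 3 d culture.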

[4] = test system: PBMCs; experiment: Cell mitosis assay in PBMCs (assay g); format: cell-based; conditions: Homo sapiens, PBMC, test compound 5 μg/mL
Outline: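 Metaphase arrest with 0.1 μg/mL demecolcine during the final 2 hr of a 20 hr compound exposure, which follows 48 hr of 2% PHA stimulation of healthy-donor human PBMCs. Mitotic lymphocytes counted by flow cytometry (anti-phospho-histone 3 plus propidium iodide). Inhibition expressed relative to 0.5% DMSO.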

| Compound | IC50 [1] [nM] | IC50 [2] [nM] | IC50 [3] [nM] | inhibition at 5 µg/mL [4] [%] |
| --- | --- | --- | --- | --- |
| COc1c(NC(=O)Nc2ccc(Oc3ccnc(Nc4cccnc4)c3)c3ccccc23)cc(C(C)(C)C)cc1P(C)(C)=O [15(ad), 1-(5-(tert-butyl)-3-(dimethylphosphoryl)-2-methoxyphenyl)-3-(4-((2-(pyridin-3-ylamino)pyridin-4-yl)oxy)naphthalen-1-yl)urea] | 1000 | 129 | 1110 | 31 |
| COc1cc(F)cc(Nc2cc(Oc3ccc(NC(=O)Nc4cc(C(C)(C)C)cc(P(C)(C)=O)c4OC)c4ccccc34)ccn2)c1 [15(an), 1-(5-(tert-butyl)-3-(dimethylphosphoryl)-2-methoxyphenyl)-3-(4-((2-((3-fluoro-5-methoxyphenyl)amino)pyridin-4-yl)oxy)naphthalen-1-yl)urea] | 712 | 116 | 251 | 50.3 |
| COc1c(NC(=O)Nc2ccc(Oc3ccnc(Nc4cnn(C)n4)n3)c3ccccc23)cc(C(C)(C)C)cc1P(C)(C)=O [15(x), 1-(5-(tert-butyl)-3-(dimethylphosphoryl)-2-methoxyphenyl)-3-(4-((2-((2-methyl-2H-1,2,3-triazol-4-yl)amino)pyrimidin-4-yl)oxy)naphthalen-1-yl)urea] | > 1630 | 356 | 624 | 18.4 |
| COc1c(CC(N)=O)cc(C(C)(C)C)cc1NC(=O)Nc1ccc(Oc2ccnc(NCc3ccccn3)c2)c2ccccc12 [38(d), 2-(5-(tert-Butyl)-2-methoxy-3-(3-(4-((2-((pyridin-2-ylmethyl)amino)pyridin-4-yl)oxy)naphthalen-1-yl)ureido)phenyl)acetamide] | > 1650 | > 1570 | 1650 | 28.1 |
| CNC(=O)Cc1cc(C(C)(C)C)cc(NC(=O)Nc2ccc(Oc3ccnc(Nc4cccc(OC)c4)c3)c3ccccc23)c1OC [38(h), 2-(5-(tert-Butyl)-2-methoxy-3-(3-(4-((2-((3-methoxyphenyl)amino)pyridin-4-yl)oxy)naphthalen-1-yl)ureido)phenyl)-N-methylacetamide] | 1080 | 181 | 160 | 30.3 |
| COc1cc(Nc2cc(Oc3ccc(NC(=O)Nc4cc(C(C)(C)C)cc(CC(N)=O)c4OC)c4ccccc34)ccn2)ccn1 [38(k), 2-(5-(tert-Butyl)-2-methoxy-3-(3-(4-((2-((2-methoxypyridin-4-yl)amino)pyridin-4-yl)oxy)naphthalen-1-yl)ureido)phenyl)acetamide] | > 1610 | 166 | 281 | 70.5 |
| COc1cncc(Nc2cc(Oc3ccc(NC(=O)Nc4cc(C(C)(C)C)cc(CC(N)=O)c4OC)c4ccccc34)ccn2)c1 [38(n), 2-(5-(tert-butyl)-2-methoxy-3-(3-(4-((2-((5-methoxypyridin-3-yl)amino)pyridin-4-yl)oxy)naphthalen-1-yl)ureido)phenyl)acetamide] | > 1610 | 95 | 348 | 66.1 |
| COc1c(CNC(C)=O)cc(C(C)(C)C)cc1NC(=O)Nc1ccc(Oc2ccnc(NCc3ccccn3)c2)c2ccccc12 [38(q), N-(5-(tert-Butyl)-2-methoxy-3-(3-(4-((2-((pyridin-2-ylmethyl)amino)pyridin-4-yl)oxy)naphthalen-1-yl)ureido)benzyl)acetamide] | > 1620 | 383 | 443 | 82.1 |
| COCCOCCOCCOc1cc(Nc2nccc(Oc3ccc(NC(=O)Nc4cc(C(C)(C)C)cc(C(=O)NCCN5CCOCC5)c4OC)c4ccccc34)n2)cc(OC)c1 [Example 8, 5-(tert-Butyl)-2-methoxy-3-(3-(4-((2-((3-methoxy-5-(2-(2-(2-methoxyethoxy)ethoxy)-ethoxy)phenyl)amino)pyrimidin-4-yl)oxy)naphthalen-1-yl)ureido)-N-(2-morpholinoethyl)-benzamide] | 42 | 14 | 41.4 | 58.1 |
| COc1c(C[S+](C)[O-])cc(C(C)(C)C)cc1NC(=O)Nc1ccc(Oc2ccnc(Nc3ccccc3)c2)c2ccccc12 (stereo not shown) [Example 25, 1-(5-(tert-Butyl)-2-methoxy-3-((methylsulfinyl)methyl)phenyl)-3-(4-((2-(phenylamino)pyridin-4-yl)oxy)naphthalen-1-yl)urea] | 724 | 224 | 175 | 24.5 |

Further lines, with some results ahead:

| IC50 [1] [nM] | IC50 [2] [nM] | Compound | IC50 [3] [nM] | inhibition at 5 µg/mL [4] [%] |
| --- | --- | --- | --- | --- |
| 364 | 33 | COc1cc(CO)cc(Nc2cc(Oc3ccc(NC(=O)Nc4cc(C(C)(C)C)cc(CC(N)=O)c4OC)c4ccccc34)ccn2)c1 [38(m), 2-(5-(tert-Butyl)-3-(3-(4-((2-((3-(hydroxymethyl)-5-methoxyphenyl)amino)pyridin-4-yl)oxy)naphthalen-1-yl)ureido)-2-methoxyphenyl)acetamide] | 93.8 | 77.4 |
| 381 | 47 | COc1c(CC(N)=O)cc(C(C)(C)C)cc1NC(=O)Nc1ccc(Oc2ccnc(Nc3ccn(C)n3)c2)c2ccccc12 [38(o), 2-(5-(tert-Butyl)-2-methoxy-3-(3-(4-((2-((1-methyl-1H-pyrazol-3-yl)amino)pyridin-4-yl)oxy)naphthalen-1-yl)ureido)phenyl)acetamide] | 60.8 | 83.2 |
| 289 | 168 | COc1c(CP(C)(C)=O)cc(C(C)(C)C)cc1NC(=O)Nc1ccc(Oc2ccnc(Nc3ccccc3)c2)c2ccccc12 [Example 24, 1-(5-(tert-Butyl)-3-((dimethylphosphoryl)methyl)-2-methoxyphenyl)-3-(4-((2-(phenylamino)-pyridin-4-yl)oxy)naphthalen-1-yl)urea] | 276 | 37.9 |
| 157 | 48 | COc1c(NC(=O)Nc2ccc(Oc3ccnc(Nc4cc(C)cc(C)c4)c3)c3ccccc23)cc(C(C)(C)C)cc1P(C)(C)=O [Example 28, 1-(5-(tert-Butyl)-3-(dimethylphosphoryl)-2-methoxyphenyl)-3-(4-((2-((3,5-dimethylphenyl)-amino)pyridin-4-yl)oxy)naphthalen-1-yl)urea] | 63.3 | 54.4 |
| 519 | 63 | COc1cccc(Nc2cc(Oc3ccc(NC(=O)Nc4cc(C(C)(C)C)cc(CC(N)=O)c4OC)c4ccccc34)ccn2)c1 [Example 33, 2-(5-(tert-Butyl)-2-methoxy-3-(3-(4-((2-((3-methoxyphenyl)amino)pyridin-4-yl)oxy)naphthalen-1-yl)ureido)phenyl)acetamide] | 117 | 31.3 |
| 369 | 112 | COc1c(CNC(C)=O)cc(C(C)(C)C)cc1NC(=O)Nc1ccc(Oc2ccnc(Nc3ccccc3)c2)c2ccccc12 [Example 35, N-(5-(tert-Butyl)-2-methoxy-3-(3-(4-((2-(phenylamino)pyridin-4-yl)oxy)naphthalen-1-yl)ureido)benzyl)acetamide] | 221 | 50.6 |
| 98 | 20 | COc1cc(Nc2cc(Oc3ccc(NC(=O)Nc4cc(C(C)(C)C)cc([S+](C)[O-])c4OC)c4ccccc34)ccn2)ccc1C(=O)NCCN1CCOCC1 (stereo not shown) [Example 72, 4-((4-((4-(3-(5-(tert-Butyl)-2-methoxy-3-(methylsulfinyl)phenyl)ureido)naphthalen-1-yl)oxy)pyridin-2-yl)amino)-2-methoxy-N-(2-morpholinoethyl)benzamide] | 156 | 36.8 |
| 120 | 29 | COc1cc(Nc2cc(Oc3ccc(NC(=O)Nc4cc(C(C)(C)C)cc(CC(N)=O)c4OC)c4ccccc34)ccn2)ccc1C(=O)NCC(CO)(CO)CO [Example 73, 4-((4-((4-(3-(3-(2-Amino-2-oxoethyl)-5-(tert-butyl)-2-methoxyphenyl)ureido)naphthalen-1-yl)oxy)pyridin-2-yl)amino)-N-(3-hydroxy-2,2-bis(hydroxymethyl)propyl)-2-methoxybenzamide] | 60.1 | 19.8 |
| 51 | 17 | COCCOCCOCCNC(=O)c1cc(Nc2cc(Oc3ccc(NC(=O)Nc4cc(C(C)(C)C)cc(CNC(=O)CN(C)C)c4OC)c4ccccc34)ccn2)cc(OC)c1 [Example 77, 3-((4-((4-(3-(5-(tert-Butyl)-3-((2-(dimethylamino)acetamido)methyl)-2-methoxyphenyl)ureido)naphthalen-1-yl)oxy)pyridin-2-yl)amino)-5-methoxy-N-(2-(2-(2-methoxyethoxy)ethoxy)ethyl)benzamide] | 18.9 | 58.7 |
